Assay results reported in patent US20090137600A1, “Antiplatelet agent and process for producing the same” (priority 2004, published 2009).
Entries after “also recorded” stand apart in the source; their conditions may differ. Like-named read-outs stand apart in the source and are kept apart here.

Assays:
COX-1 = molecular target: T1, COX-1 (Ovis aries, UniProt P05979); assay: Inhibition of cyclooxygenase-1 (COX inhibitor screening assay kit, PGF2α ELISA); assay type: biochemical; settings: for IC50 for COX-1 relative to IC50 of platelet aggregation suppression: ratio COX-1 IC50 / platelet aggregation IC50
T1 sequence (P05979 25-600): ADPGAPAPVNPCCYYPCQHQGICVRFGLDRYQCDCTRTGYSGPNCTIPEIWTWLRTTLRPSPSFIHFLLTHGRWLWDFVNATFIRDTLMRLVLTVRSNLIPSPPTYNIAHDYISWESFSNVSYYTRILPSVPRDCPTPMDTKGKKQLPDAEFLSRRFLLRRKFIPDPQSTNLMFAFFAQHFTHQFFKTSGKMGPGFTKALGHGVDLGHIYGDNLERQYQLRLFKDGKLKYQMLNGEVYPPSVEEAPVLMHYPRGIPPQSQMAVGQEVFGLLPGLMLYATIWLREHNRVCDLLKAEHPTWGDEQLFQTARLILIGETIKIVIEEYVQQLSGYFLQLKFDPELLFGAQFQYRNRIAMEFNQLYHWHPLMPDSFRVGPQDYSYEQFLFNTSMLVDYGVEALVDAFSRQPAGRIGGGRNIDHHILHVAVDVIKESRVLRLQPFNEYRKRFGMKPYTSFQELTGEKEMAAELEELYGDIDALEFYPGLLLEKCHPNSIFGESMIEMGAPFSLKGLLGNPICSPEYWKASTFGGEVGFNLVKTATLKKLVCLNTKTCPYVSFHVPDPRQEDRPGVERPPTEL
Method: (§1) Screening assay kit for COX inhibitor (Cayman Chemical Company, Catalog Nos. 560101 and 560121) were used to measure inhibitory activity of each compound for COX-1 and COX-2.
(§2) Reaction buffer, heme, arachidonic acid, SnCl2, EIA buffer, wash buffer, prostaglandin (PG) screening EIA standard, PG screening acetylcholinesterase (AchE) tracer ([…]), and PG screening EIA antiserum were prepared before the measurement.
(§3) The reaction solution containing various concentration of the compound of the Examples and COX-1 or COX-2 was allowed to stand at 37° C. for 10 minutes. 10 μL of arachidonic acid was added, and the reaction solution was allowed to stand at 37° C. for 2 minutes. After the reaction, 50 μL of 1N hydrochloric acid was added to cease the reaction, and 100 μL of SnCl2 solution was added, and the reaction solution was allowed to stand at room temperature for 5 minutes.
(§4) 50 μL of an antiserum (rabbit anti-PGF2α antibody) was added to each well of a 96 well plate which had been coated with mouse anti-rabbit IgG, and to each well was added 50 μL of a 2000-fold dilution of the PGF2α producing reaction solution, and then, 50 μL of the AchE tracer. The reaction mixture was allowed to stand at room temperature for 18 hours. The wells were washed 5 times with the wash buffer to remove the excessive AchE tracer, and 200 μL of Ellman reagent was added. After allowing to stand in a dark room for 60 minutes, the absorbance was measured at 405 nm.
(§5) Standard curve was depicted by using PG screening EIA standard, and amount of the PGF2α produced was determined from the absorbance.

COX-2 = molecular target: T2, COX-2 (Homo sapiens, UniProt P35354); assay: Inhibition of cyclooxygenase-2 (COX inhibitor screening assay kit, PGF2α ELISA); assay type: biochemical; settings: for IC50 for COX-2 relative to IC50 of platelet aggregation suppression: ratio COX-2 IC50 / platelet aggregation IC50
T2 sequence (P35354 18-604): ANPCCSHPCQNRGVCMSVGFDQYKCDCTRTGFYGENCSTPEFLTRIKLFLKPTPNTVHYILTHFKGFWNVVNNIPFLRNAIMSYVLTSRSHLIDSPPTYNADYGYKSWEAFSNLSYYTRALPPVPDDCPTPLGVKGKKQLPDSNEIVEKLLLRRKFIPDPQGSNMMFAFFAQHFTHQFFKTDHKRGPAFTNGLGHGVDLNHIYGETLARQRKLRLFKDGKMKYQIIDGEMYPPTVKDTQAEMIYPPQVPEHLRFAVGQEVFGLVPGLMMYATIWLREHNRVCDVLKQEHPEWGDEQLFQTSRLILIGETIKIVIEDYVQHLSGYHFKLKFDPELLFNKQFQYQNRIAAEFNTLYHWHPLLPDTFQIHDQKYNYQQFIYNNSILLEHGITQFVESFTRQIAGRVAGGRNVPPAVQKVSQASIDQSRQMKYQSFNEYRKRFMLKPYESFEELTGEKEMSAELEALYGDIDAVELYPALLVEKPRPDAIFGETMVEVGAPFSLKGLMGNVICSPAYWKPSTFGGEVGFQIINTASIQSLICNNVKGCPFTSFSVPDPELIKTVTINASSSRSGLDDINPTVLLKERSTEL
Method: as §1, §2, §3, §4, §5

[1] = tested on: human platelet rich plasma (PRP), aggregation induced by collagen; assay: Suppression of collagen-induced platelet aggregation in human PRP; assay type: cell-based
Method: (§6) After removing the PRP in the upper layer, the lower layer was further centrifuged at 1600 g for 10 minutes to separate the platelet poor plasma (PPP). 1 μL of the solution of Compound (I) or Comparative Examples 1 to 3 was added to 200 μL of PRP, and the mixture was allowed to stand at 37° C. for 2 minutes. Platelet aggregation was then induced by adding 2 μL of collagen to the mixture. Platelet aggregation rate was measured by using PAM-12C (SSR Engineering).

[2] = tested on: platelet aggregation induced by collagen; assay: Inhibition of platelet aggregation induced by collagen (general statement); assay type: cell-based; settings: species not given
[3] = Crystal stability on storage at 25° C. and 0%, 52% or 93% RH for 3 days; assay type: physicochemical; design: key to Crystal form (change): No: No change; Yes: Some change
Method: Compounds (1a), (1b), and (1c) as well as various salts of Compound (1a) produced in the Examples as described above were stored at 25° C. and at a relative humidity of 0%, 52%, or 93% for 3 days to evaluate change in weight and crystal form. Change in crystal form was measured in the case of fumarate at a low humidity, and in the case of Compound (1a) and its citrate at a high humidity. The salts of Compound (1a) were produced according to the method of Example 3.

[4] = tested on: guinea pig platelet rich plasma (PRP), aggregation induced by collagen; assay: Suppression of collagen-induced platelet aggregation in guinea pig PRP; assay type: cell-based; settings: Cavia porcellus
Method: as §6

[5] = tested on: platelet aggregation induced by collagen in PRP of guinea pig; assay: Evaluation of oral absorption: ex vivo collagen-induced platelet aggregation in PRP of orally dosed guinea pig; settings: for ex vivo inhibition of the platelet aggregation by the collagen: general statement, no dose given
thrombogenesis [6] = assay: Model of thrombosis induced by high shear stress; assay type: in vivo
thrombogenesis [7] = assay: Thrombus model induced by iron chloride; assay type: in vivo
[8] = Solubility in water, JP1 solution and JP2 solution; assay type: physicochemical
[9] = Safety (general statement)
[10] = Stability under wet heat, dry heat and beam irradiation; assay type: physicochemical

| Molecule | IC50 (COX-1) | IC50 for COX-1 relative to IC50 of platelet aggregation suppression (COX-1) | IC50 (COX-2) | IC50 for COX-2 relative to IC50 of platelet aggregation suppression (COX-2) | inhibition of the platelet aggregation induced by collagen [2] | Crystal form (change) ([3]; 0% RH) | Weight change (%) ([3]; 0% RH) | Crystal form (change) ([3]; 52% RH) | Weight change (%) ([3]; 52% RH) | Crystal form (change) ([3]; 93% RH) | Weight change (%) ([3]; 93% RH) | ex vivo inhibition of the platelet aggregation by the collagen [5] | solubility in water, JP1 solution and JP2 solution [8] | also measured |
| --- | --- | --- | --- | --- | --- | --- | --- | --- | --- | --- | --- | --- | --- | --- |
| COc1ccc(-n2nc(C(=O)N3CCN(C)CC3)cc2-c2ccccn2)nn1 [Compound (1a), [1-(6-methoxypyridazine-3-yl)-5-(pyridine-2-yl)-1H-pyrazole 3-yl](4-methylpiperazine-1-yl)methanone] | 97 µM | 100 fold | > 50 µM | 100 fold | remarkable inhibition | No^1) | −0.41% | No | 0.41% | Yes | 7.99% | strong ex vivo inhibition |  | IC50 [1]: 1.1 to 1.3 µM; IC50 [4]: 0.13 µM; oral absorbability [5]: excellent oral absorption |
| COc1ccc(-n2nc(C(=O)N3CCN(C)CC3)cc2-c2ccccn2)nn1.Cl [Compound (1b), [1-(6-Methoxypyridazine-3-yl)-5-(pyridine-2-yl)-1H-pyrazole-3-yl] (4-methylpiperazine-1-yl)methanone Monohydrochloride] | > 100 µM | 100 fold | > 100 µM | 100 fold | remarkable inhibition | No | 0.20% | No | 0.58% | Yes | 11.54% | strong ex vivo inhibition | good solubility | inhibition of the thrombogenesis (thrombogenesis [6]): remarkable inhibition; suppression of thrombogenesis (thrombogenesis [7]): remarkable suppression; IC50 ([1]; Homo sapiens, Platelet): 0.86 µM; safety [9]: no safety problems; platelet aggregation induced by collagen, ex vivo ([5]; guinea pig, 10 mg/kg oral, 1 hour after administration, collagen 0.8 μg to 2.5 μg): remarkably suppressed; oral absorbability ([5]; Monohydrochloride): excellent oral absorption; also recorded: sufficiently absorbed; also recorded: favorable oral absorbability |
| COc1ccc(-n2nc(C(=O)N3CCN(C)CC3)cc2-c2ccccn2)nn1 [Compound (1c), [1-(6-methoxypyridazine-3-yl)-5-(pyridine-2-yl)-1H-pyrazole-3-yl] (4-methylpiperazine-1-yl)methanone mono-1-tartrate] |  |  |  |  | remarkable inhibition | No | −0.20% | No | 0.00% | No | 0.19% |  | highly soluble | stability under wet heat, dry heat, and beam irradiation [10]: extremely stable |
| Citrate |  |  |  |  |  | No | 0.00% | No | 0.00% | Yes | 2.45% |  |  |  |
| Fumarate |  |  |  |  |  | Yes^2) | −5.65% | No | 1.60% | No | 0.59% |  |  |  |
| Maleate |  |  |  |  |  | No | 0.00% | No | 0.40% | No | 0.39% |  |  |  |
